US20170247409A1, “ABIETANE-TYPE DITERPENOIDS” (UNIVERSITY OF HELSINKI, priority 2014, published 2017)
Converted amounts (≈) assume the structure as drawn. “And” between values parts separate entries of the source, which are not always exact repeats. Equal values may be shown once. Read-outs that look alike come from different tables or passages of the source.

Legend:
[1] = test system: S. aureus ATCC 25923 biofilms; test: Anti-biofilm viability assay with redox dye, pre- and post-exposure, S. aureus ATCC 25923 biofilms; type: cell-based, Staphylococcus aureus; details: for inhibition at 400 µM: ATCC25923; for % inhibition, Post-biofilm formation: at 400 μM, existing biofilms
[2] = test system: S. aureus Newman; test: Anti-biofilm potency against S. aureus Newman biofilms; type: cell-based, Staphylococcus aureus
Text: In fact, only 2-3 fold-higher concentrations of the compounds were needed to kill existing biofilms, in comparison to inhibiting bacterial colonization. […] Anti-biofilm potencies were all in the micromolar range and they were particularly significant for compound 22. […] The activity was also confirmed against S. aureus Newman strain. Potency values calculated for the S. aureus Newman (Table 3) were very similar to the values registered for S. aureus ATCC 25923.

[3] = test system: single-cell bacteria; test: Antibacterial activity (MIC) against single-cell (planktonic) bacteria; type: cell-based; details: Staphylococcus aureus, in the absence of biofilms, strain not stated
Text: We selected six of the active compounds in the post-exposure assays namely, compounds 20, 21, 22, 25, 31 and 32 for the follow-up studies. […] In this mode of the assay, the interaction of the compounds occurs initially with single-cell bacteria (that is, a planktonic solution) before biofilms are formed. Therefore, we tested additionally if the compounds could exert antibacterial activity against single-cell bacteria, in the absence of biofilms. Based solely on conventional MIC and MBC values, antibacterial activities against single-cell bacteria were also high for the derivatives. […] The antibacterial activity order 22>21>25>31>20>32 correlated very well with the measured activity in preventing biofilm formation.

[4] = test system: S. epidermidis ATCC 35984; test: Anti-biofilm activity against S. epidermidis ATCC 35984; type: cell-based, Staphylococcus epidermidis; details: tested at IC50 conc. measured against S. aureus ATCC 25923
Experimental: (§1) Four of the compounds were also tested against gram-negative E. coli biofilms as well as other Staphylococcal strains, at the corresponding IC50 values measured against S. aureus ATCC 25923 (Table 4). […] Nonetheless, all the compounds presented below were found active against S. epidermidis (ATCC 12228 and ATCC 35984) strains (Table 3).

[5] = test system: E. coli XL1 blue; test: Anti-biofilm activity against E. coli XL1 blue biofilms; type: cell-based, Escherichia coli; details: tested at IC50 conc. measured against S. aureus ATCC 25923
Experimental: as §1

[6] = test system: HL cells; test: Tolerability of mammalian cells, resazurin viability assay; type: cell-based, human; details: concentrations of up to 100 μM; 24 hours exposure
Experimental: Viability values were measured in acute conditions (24 hours exposure) using the resazurin assay as in Karlsson et al, 2012 (Eur J Pharm Sci. 2012 Aug 30;47(1):190-205). […] The least tolerated molecule was 25, as only 23% (±5.9) of cells remained viable upon exposure to 100 μM. However, concentrations up to 30 μM caused no cytotoxicity (90.2% of viable cells, ±0.5).

[7] = test system: S. aureus ATCC 25923 biofilms; test: Viable plate counts and Log Reduction of S. aureus ATCC 25923 biofilms; type: cell-based, Staphylococcus aureus; details: 400 μM, viable plate counts
Experimental: The viability of S. aureus (ATCC 25923) biofilms left upon exposure to compounds 20, 21, 22 and 25 was determined using viable plate counts and calculating the Log Reduction (Log R) value. This procedure involves scrapping the biofilms off the substrate, disaggregating them by sonication and plating the resulting suspension in agar. The method is highly laborious but it is the gold standard for the quantification of anti-biofilm efficacy (Pitts et al. 2003). […] Of note, a log R value of 2 represents a reduction of 99% of the viable cells in the biofilms, and typically, a log R of 3 is considered a relevant indicator of the compound efficacy as an anti-biofilm agent.

[8] = test system: S. epidermidis ATCC 12228; test: Anti-biofilm activity against S. epidermidis ATCC 12228; type: cell-based, Staphylococcus epidermidis; details: tested at IC50 conc. measured against S. aureus ATCC 25923
Experimental: as §1

[9] = test system: S. aureus biofilm; details: Fallarero et al, 2013; cited from earlier work
[10] = Staphylococcus aureus, ATCC25923, 50% inhibition of biofilm viability, S. aureus ATCC 25923, read-out: Potency, IC50 Prior-to-biofilm formation
[11] = Staphylococcus aureus, ATCC25923, 50% inhibition of biofilm viability, S. aureus ATCC 25923, value in parentheses, read-out: Potency, IC50 Prior-to-biofilm formation
[12] = Staphylococcus aureus, ATCC25923, 24 h, measured 24 hours after adding to existing biofilms, S. aureus ATCC 25923, read-out: Potency, IC50 Post-biofilm formation
[13] = Staphylococcus aureus, ATCC25923, 24 h, measured 24 hours after adding to existing biofilms, S. aureus ATCC 25923, value in parentheses, read-out: Potency, IC50 Post-biofilm formation
[14] = Staphylococcus aureus, post-exposure, S. aureus ATCC 25923, read-out: % Inhibition 400 μM POST
[15] = Staphylococcus aureus, pre-exposure, S. aureus ATCC 25923, read-out: % Inhibition 400 μM PRE
[16] = Staphylococcus aureus, S. aureus Newman, read-out: Potency, IC50 Post-biofilm formation
[17] = Staphylococcus aureus, S. aureus Newman, read-out: Potency, IC50 Prior-to-biofilm formation
[18] = Staphylococcus aureus, S. aureus Newman, value in parentheses, read-out: Potency, IC50 Post-biofilm formation
[19] = Staphylococcus aureus, S. aureus Newman, value in parentheses, read-out: Potency, IC50 Prior-to-biofilm formation

In the case of `CC(C)c1ccc2c(c1)CC[C@H]1[C@](C)(C(=O)N[C@H](Cc3ccccc3)C(=O)O)CCC[C@]21C` [Compound 31, N-(Abiet-8,11,13-trien-18-oyl) D-phenylalanine], the IC50 [1, 10] is reported as 37.4 µM, the IC50 [1, 11] is reported as 16.7 µg/mL and the IC50 [1, 12] is reported as 98.2 µM. The IC50 [1, 13] was 44 µg/mL, the inhibition at 400 µM [1, 14] was 102% and the inhibition at 400 µM [1, 15] was 102%. For the same molecule, the IC50 [2, 16] was 110 µM, the IC50 [2, 17] was 36.2 µM and the IC50 [2, 18] was 49.4 µg/mL. It also gave an IC50 [2, 19] of 16.2 µg/mL and an MIC [3] of 31.3 µg/mL (≈ 69.9 µM).

`CC(C)C[C@H](NC(=O)[C@]1(C)CCC[C@]2(C)c3ccc(C(C)C)cc3CC[C@@H]12)C(=O)O` [Compound 20, N-(Abiet-8,11,13-trien-18-oyl) L-leucine] showed an IC50 [1, 10] of 62.2 µM, an IC50 [1, 11] of 25.7 µg/mL and an IC50 [1, 12] of 121 µM. For the same molecule, the IC50 [1, 13] was 50.2 µg/mL, the inhibition at 400 µM [1, 14] was 99.8% and the inhibition at 400 µM [1, 15] was 100%. The “Inhibition percentage (±SD) Post-biofilm formation” value [4] was −12 (±6.0) %, the “Inhibition percentage (±SD) Prior-to-biofilm formation” value [4] was 53.4 (±4.9) % and the “Inhibition percentage (±SD) Post-biofilm formation” value [5] was 39.9 (±4.6) %. For the same molecule, the “Inhibition percentage (±SD) Prior-to-biofilm formation” value [5] was 14.2 (±4.5) %, the “cytotoxicity in HL cells” value [6] was “did not cause statistically significant cytotoxicity” and the IC50 [2, 16] was 134 µM. It also gave an IC50 [2, 17] of 51.8 µM, an IC50 [2, 18] of 55.6 µg/mL and an IC50 [2, 19] of 21.4 µg/mL. The “Log Reduction (average ±SD)” value [7] was 3.9 (±0.4), the “Inhibition percentage (±SD) Post-biofilm formation” value [8] was 12.9 (±5.1) % and the “Inhibition percentage (±SD) Prior-to-biofilm formation” value [8] was 62.4 (±2.2) %. The MIC [3] was 33.1 µg/mL (≈ 80 µM).

`CC(C)c1ccc2c(c1)CC[C@H]1[C@](C)(C(=O)N[C@H](C(=O)O)C(C)C)CCC[C@]21C` [Compound 18, N-(Abiet-8,11,13-trien-18-oyl) L-valine] gave an inhibition at 400 µM [1, 14] of 99.2% and an inhibition at 400 µM [1, 15] of 100%.

With `CN[C@H](CC(C)C)C(=O)N[C@H]1C(=O)N[C@@H](CC(N)=O)C(=O)N[C@H]2C(=O)N[C@H]3C(=O)N[C@H](C(=O)N[C@H](C(=O)O)c4cc(O)cc(O)c4-c4cc3ccc4O)[C@H](O)c3ccc(c(Cl)c3)Oc3cc2cc(c3O[C@@H]2O[C@H](CO)[C@@H](O)[C@H](O)[C@H]2O[C@H]2C[C@](C)(N)[C@H](O)[C@H](C)O2)Oc2ccc(cc2Cl)[C@H]1O` [Vancomycin, reference compound] the IC50 ([1]; Staphylococcus aureus, ATCC25923, read-out: Potency, IC50 Prior-to-biofilm formation) was 710 nM and 1.03 µg/mL, the “% inhibition, Post-biofilm formation” value ([1]; S. aureus ATCC 25923) was 25% inhibition at 400 μM and the inhibition at 400 µM ([2]; Staphylococcus aureus, NEWMAN, read-out: % inhibition, Post-biofilm formation) was 37.9%. For the same molecule, the IC50 ([2]; Staphylococcus aureus, NEWMAN, read-out: Potency, IC50 Prior-to-biofilm formation) was 1.3 µM and 1.88 µg/mL.

In the case of `CC(C)c1ccc2c(c1)CC[C@H]1[C@](C)(C(=O)O)CCC[C@]21C` [dehydroabietic acid], the “prevention of S. aureus biofilm formation” value (“prevention” below) [9] is listed as “low micromolar range”.

In the case of `CC(C)c1ccc2c(c1)CC[C@H]1[C@](C)(CN)CCC[C@]21C` [dehydroabietylamine], the “prevention” value [9] is listed as “low micromolar range”.

Work on `CC(C)c1ccc2c(c1)CC[C@H]1[C@](C)(C(=O)N[C@@H](Cc3ccccc3)C(=O)O)CCC[C@]21C` [Compound 21, N-(Abiet-8,11,13-trien-18-oyl) L-phenylalanine] yielded an IC50 [1, 10] of 35.5 µM, an IC50 [1, 11] of 15.9 µg/mL and an IC50 [1, 12] of 109 µM. The IC50 [1, 13] was 48.7 µg/mL, the inhibition at 400 µM [1, 14] was 99.6% and the inhibition at 400 µM [1, 15] was 100%. The “Inhibition percentage (±SD) Post-biofilm formation” value [4] was 44.4 (±8.4) %, the “Inhibition percentage (±SD) Prior-to-biofilm formation” value [4] was 58.1 (±4.1) % and the “Inhibition percentage (±SD) Post-biofilm formation” value [5] was 30.4 (±6.1) %. For the same molecule, the “Inhibition percentage (±SD) Prior-to-biofilm formation” value [5] was 7.4 (±2.7) %, the “cytotoxicity in HL cells” value [6] was “did not cause statistically significant cytotoxicity” and the IC50 [2, 16] was 83.7 µM. For the same molecule, the IC50 [2, 17] was 35.9 µM, the IC50 [2, 18] was 37.5 µg/mL and the IC50 [2, 19] was 16.1 µg/mL. The “Log Reduction (average ±SD)” value [7] was 4.3 (±0.2), the “Inhibition percentage (±SD) Post-biofilm formation” value [8] was 46.9 (±9.9) % and the “Inhibition percentage (±SD) Prior-to-biofilm formation” value [8] was 57.3 (±4.6) %. For the same molecule, the MIC [3] was 22.4 µg/mL (≈ 50 µM).

Molecule `CSCC[C@@H](NC(=O)[C@]1(C)CCC[C@]2(C)c3ccc(C(C)C)cc3CC[C@@H]12)C(=O)O` [Compound 23, N-(Abiet-8,11,13-trien-18-oyl) D-methionine] has an inhibition at 400 µM [1, 14] of 92.6% and an inhibition at 400 µM [1, 15] of 102%.

`CC(C)c1ccc2c(c1)CC[C@H]1[C@](C)(C(=O)N[C@H](Cc3ccc(O)cc3)C(=O)O)CCC[C@]21C` [Compound 24, N-(Abiet-8,11,13-trien-18-oyl) D-tyrosine] showed an inhibition at 400 µM [1, 14] of 26.3% and an inhibition at 400 µM [1, 15] of 102%.

For nordehydroabietylamine, the “prevention” value [9] is listed as “low micromolar range”.

In the case of `CC(C)c1ccc2c(c1)C(=O)C[C@H]1[C@](C)(C(=O)N[C@@H](CC3CCCCC3)C(=O)O)CCC[C@]21C` [Compound 32, N-(7-Oxoabiet-8,11,13-trien-18-oyl) Cyclohexyl-L-alanine], the IC50 [1, 10] is reported as 60.6 µM, the IC50 [1, 11] is reported as 28.3 µg/mL and the IC50 [1, 12] is reported as 145 µM. For the same molecule, the IC50 [1, 13] was 67.9 µg/mL, the inhibition at 400 µM [1, 14] was 102% and the inhibition at 400 µM [1, 15] was 102%. It also gave an IC50 [2, 16] of 93.1 µM, an IC50 [2, 17] of 63.5 µM and an IC50 [2, 18] of 43.5 µg/mL. The IC50 [2, 19] was 29.7 µg/mL and the MIC [3] was 46.8 µg/mL (≈ 100 µM).

In the case of `CC[C@H](NC(=O)[C@]1(C)CCC[C@]2(C)c3ccc(C(C)C)cc3CC[C@@H]12)C(=O)O` [Compound 19, N-(abiet-8,11,13-trien-18-oyl) Ethyl-L-glycine], the inhibition at 400 µM [1, 14] is reported as 98.9% and the inhibition at 400 µM [1, 15] is reported as 99.8%.

For `CC1(C)S[C@@H]2[C@H](NC(=O)Cc3ccccc3)C(=O)N2[C@H]1C(=O)O` [Penicillin G, reference compound], the IC50 ([1]; 50% inhibition of biofilm viability, S. aureus ATCC 25923, read-out: Potency, IC50 Prior-to-biofilm formation) was 0.13 µM, the “Potency, IC50 Prior-to-biofilm formation” value ([1]; 50% inhibition of biofilm viability, S. aureus ATCC 25923, value in parentheses) was 0.048 µg/mL (≈ 0.144 µM) and the “% inhibition, Post-biofilm formation” value ([1]; S. aureus ATCC 25923) was 57% inhibition at 400 μM. For the same molecule, the IC50 ([2]; S. aureus Newman, read-out: Potency, IC50 Prior-to-biofilm formation) was 0.27 µM, the “Potency, IC50 Prior-to-biofilm formation” value ([2]; S. aureus Newman, value in parentheses) was 0.090 µg/mL (≈ 0.269 µM) and the “% inhibition, Post-biofilm formation” value ([2]; at 400 μM, S. aureus Newman) was 73% inhibition at 400 μM. For the same molecule, the “Log Reduction (average ±SD)” value [7] was 1.0 (±0.1).
